Laboratory results from patent EP1190034B1, “BLEACH ACTIVATOR BASED ON INULIN” (Coöperatie Cosun U.A., priority 1999, dated 2001).

How the values were obtained:
[1] = Solubility in water; assay type: physicochemical
[2] = Bleach activator test procedure (peracetic acid liberated, iodometric titration); settings: hydrogen peroxide, 30 °C, pH 11.6, 4 minutes, correction factor 1.10
Protocol: The bleach activator property is determined on the basis of the quantity of peracetic acid that can be liberated from the product. […] The best characteristics are found when the acylation is carried out in water at controlled pH (Table 1).
Mix the following solutions: • 15 ml 0.6% hydrogen peroxide solution • 10 ml saturated sodium pyrophosphate solution • 10 ml 0.05% EDTA solution. • Make up to 100 ml with demineralised water and heat to 30 °C. • Add the heated mixture to an accurately weighed amount (75 - 90 mg) of bleach activator in a 600 ml glass beaker. • Adjust the pH to 11.6 with 0.1 M NaOH solution. • Precisely 4 minutes after the first addition add 30 ml 0.1% catalase solution. • Adjust the pH to 10.5 with 0.5 M sulphuric acid solution and cool the solution to 0 - 3 °C. • Precisely 6 minutes after the first addition add 15 ml 100% acetic acid solution and 15 ml 10% potassium iodide solution. • Titrate the liberated iodine against a 0.1 M thiosulphate solution. The mol% peracetic acid liberated from the bleach activator can be calculated from the quantity of thiosulphate solution required, 2 mmol thiosulphate corresponding to 1 mmol peracetic acid formed. The determinations were corrected for the loss of peracetic acid during the measurement. The correction factor for this loss is 1.10.

CC(=O)N(CCN(C(C)=O)C(C)=O)C(C)=O [TAED, tetraacetylethylenediamine]
Solubility (%) [1]: 0.1% | Peracetate formed (mol%) ([2]; 100 x number of mols of peracetate formed / total number of mols of acetyl groups in product): 45 mol% | mol peracetate/ kg product [2]: 7.9 mol peracetate/ kg product
